Data reported in the NIST ThermoML archive (doi:10.1007/s10765-006-0079-5).

Conditions: Liquid, Pulse-echo method

CCCCCCCCC [nonane]
speed of sound [m/s]
Conditions	293.15 K	313.15 K	333.15 K	353.15 K	373.15 K	393.15 K
100 kPa	1226.4	1146.2	1068.2	992.62	922.16	–
10000 kPa	1288	1212.8	1140.9	1072.6	1005	946.87
20000 kPa	1344.8	1274.2	1206.9	1142.6	1081.3	1022.9
30000 kPa	1396.9	1329.8	1266.2	1205.6	1148.1	1093.7
40000 kPa	1445.1	1380.9	–	1262.5	1208	1156.6
50000 kPa	1490.1	1428.3	1369.8	1314.6	1262.5	1213.6
60000 kPa	1532.5	1472.7	1416.3	1363.2	1313.1	1266.1
70000 kPa	1572.5	1514.7	1460.1	1408.5	1360.1	1314.7
80000 kPa	1610.6	1554.4	1501.3	1451.3	1404.3	1360.4
90000 kPa	1646.9	1592	1540.3	1491.7	1446.1	1403.3
100000 kPa	1681.6	1628	1577.4	1529.8	1485.5	1443.7
